Key:
Test in all cases: Broth microdilution MIC, Example 7 (NCL812 and analogues)
VRE = type: cell-based, Enterococcus spp.
Procedure, shortened: (§1)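 MICs in μg/ml were read as growth inhibition by eye, checked at 600 nm absorbance against drug-free wells, following CLSI broth microdilution. Strains: two MRSA, two VRE; duplicates, repeated once more when results diverged beyond one dilution step.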

Escherichia coli = type: cell-based; conditions: 24 hours
MRSA = type: cell-based, Staphylococcus aureus
Procedure, shortened: as §1

Pseudomonas aeruginosa = type: cell-based; conditions: 24 hours
[1] = VRE 1, 24 hours, duplicate lines per compound
[2] = VRE 2, 24 hours, duplicate lines per compound
[3] = E. coli, duplicate lines per compound
[4] = MRSA 1, 24 hours, duplicate lines per compound
[5] = MRSA 2, 24 hours, duplicate lines per compound
[6] = P. aeruginosa, duplicate lines per compound
[7] = isolate VRE 1, 24 hours, 1st and 2nd replicate rows
[8] = isolate VRE 2, 24 hours, 1st and 2nd replicate rows
[9] = isolate MRSA 1, 24 hours, 1st and 2nd replicate rows
[10] = isolate MRSA 2, 24 hours, 1st and 2nd replicate rows

Row | SMILES | MIC (μg/ml) at 24 hours, VRE 1 (VRE; [1]) | MIC (μg/ml) at 24 hours, VRE 2 (VRE; [2]) | MIC (μg/ml) at 24 hours, E. coli (Escherichia coli; [3]) | MIC (μg/ml) at 24 hours, MRSA 1 (MRSA; [4]) | MIC (μg/ml) at 24 hours, MRSA 2 (MRSA; [5]) | MIC (μg/ml) at 24 hours, P. aeruginosa (Pseudomonas aeruginosa; [6]) | MIC (μg/ml) at 24 hours, VRE 1 (VRE; [7]) | MIC (μg/ml) at 24 hours, VRE 2 (VRE; [8]) | MIC (μg/ml) at 24 hours, E. coli (Escherichia coli; 1st and 2nd replicate rows) | MIC (μg/ml) at 24 hours, MRSA 1 (MRSA; [9]) | MIC (μg/ml) at 24 hours, MRSA 2 (MRSA; [10]) | MIC (μg/ml) at 24 hours, P. aeruginosa (Pseudomonas aeruginosa; 1st and 2nd replicate rows) | further results
1 | Cl.N=C(NN=Cc1ccccc1-c1ccccc1)NN=Cc1ccccc1-c1ccccc1 [NCL 116] | >128 µg/mL | >128 µg/mL | >128 µg/mL | >128 µg/mL | >128 µg/mL | >128 µg/mL | – | – | – | – | – | – | –
2 | Nc1nc(N/N=C/c2ccc(O)cc2)nc(N/N=C/c2ccc(O)cc2)n1 [NCL211] | – | – | – | – | – | – | – | – | – | – | – | – | MIC (μg/ml) at 24 hours, VRE 1 (VRE; VRE 1, 24 hours): >128 µg/mL; MIC (μg/ml) at 24 hours, VRE 2 (VRE; VRE 2, 24 hours): >128 µg/mL; MIC (μg/ml) at 24 hours, E. coli (Escherichia coli; E. coli): >128 µg/mL; MIC (μg/ml) at 24 hours, MRSA 1 (MRSA; MRSA 1, 24 hours): >128 µg/mL; MIC (μg/ml) at 24 hours, MRSA 2 (MRSA; MRSA 2, 24 hours): >128 µg/mL; MIC (μg/ml) at 24 hours, P. aeruginosa (Pseudomonas aeruginosa; P. aeruginosa): >128 µg/mL
3 | C/C(=N\NC(=N)N/N=C/c1ccc(C(F)(F)F)cc1)c1ccc(C(F)(F)F)cc1.Cl [NCL075] | >128 µg/mL | >128 µg/mL | >128 µg/mL | >128 µg/mL | >128 µg/mL | >128 µg/mL | – | – | – | – | – | – | –
4 | N#Cc1cccc(/C=N/NC(=O)N/N=C/c2cccc(C#N)c2)c1 [NCL009] | – | – | – | – | – | – | >128 µg/mL | >128 µg/mL | >128 µg/mL | >128 µg/mL | >128 µg/mL | >128 µg/mL | –
5 | Cl.N=C(N/N=C/c1ccc(Cl)cc1)N/N=C/c1cccc(Cl)c1 [NCL083] | >128 µg/mL | >128 µg/mL | >128 µg/mL | >128 µg/mL | >128 µg/mL | >128 µg/mL | – | – | – | – | – | – | –
6 | Cl.N=C(NN=Cc1c(O)ccc2ccccc12)NN=Cc1c(O)ccc2ccccc12 [NCL 124] | >128 µg/mL | >128 µg/mL | >128 µg/mL | >128 µg/mL | >128 µg/mL | >128 µg/mL | – | – | – | – | – | – | –
7 | COc1cc(C=NNC(=N)NN=Cc2cc(Br)c(OC)c(OC)c2)cc(Br)c1OC.Cl [NCL 130] | >128 µg/mL | >128 µg/mL | >128 µg/mL | >128 µg/mL | >128 µg/mL | >128 µg/mL | – | – | – | – | – | – | –
8 | Cl.N=C(NN=Cc1cccc(O)c1)NN=Cc1cccc(O)c1 [NCL108] | 64 µg/mL | 128 µg/mL | >128 µg/mL | 64 µg/mL | 64 µg/mL | >128 µg/mL | – | – | – | – | – | – | activity against VRE among analogues (VRE; MIC testing, two VRE strains): greatest activity; activity against MRSA among analogues (MRSA; MIC testing, two MRSA strains): greatest activity
9 | Cc1ccccc1/C=N/NC(=N)N.Cl [NCL045] | – | – | – | – | – | – | >128 µg/mL | >128 µg/mL | >128 µg/mL | >128 µg/mL | >128 µg/mL | >128 µg/mL | –
10 | N#Cc1cccc(/C=N/NC(N)=O)c1 [NCL051] | – | – | – | – | – | – | >128 µg/mL | >128 µg/mL | >128 µg/mL | >128 µg/mL | >128 µg/mL | >128 µg/mL | –
11 | Cc1cccc(C=NNC(=N)NN=Cc2cccc(C)c2O)c1O.Cl [NCL 152] | >128 µg/mL | >128 µg/mL | >128 µg/mL | >128 µg/mL | >128 µg/mL | >128 µg/mL | – | – | – | – | – | – | –
12 | Cc1ccc(C=NNC(=N)NN=Cc2ccc(Cl)cc2)cc1.Cl [NCL076] | >128 µg/mL | >128 µg/mL | >128 µg/mL | >128 µg/mL | >128 µg/mL | >128 µg/mL | – | – | – | – | – | – | –
13 | NC(=O)N/N=C/c1ccccc1C(F)(F)F [NCL060] | – | – | – | – | – | – | >128 µg/mL | >128 µg/mL | >128 µg/mL | >128 µg/mL | >128 µg/mL | >128 µg/mL | –

— patent US10253002B2, “Compounds and methods of treating infections” (Neoculi Pty Ltd., priority 2013, dated 2019)
